Data published in patent publication US10336702B2, “Pharmaceutically active compounds” (BERGENBIO ASA, priority 2015, dated 2019).

Columns and labels:
[1] = tested on: MDA-MB-231D3H2LN/GFP-Luc mammary carcinoma cells; assay: Lung metastasis after tail vein injection of TNBC cells; format: in vivo, NSG mice; conditions: 25 mg/kg twice a day
Experimental: Mice injected with MDA-MB-231D3H2LN/GFP-Luc mammary carcinoma cells and treated with vehicle or EX67 (25 mg/kg b.i.d.) over the course of 14 days were injected with D-luciferin (150 mg/kg) IP 10 minutes before being imaged. Whole-body imaging was performed on an Optix MX2 Small Animal Molecular Imager to measure the total photon count for each animal±SEM. n=10 for vehicle and n=10 for EX67 group.
The cellular program of epithelial to mesenchymal transition (EMT) is utilized by tumor cells to metastasize. The effect of EX67 on lung metastases was evaluated in a TNBC model.
NSG mice were injected in the tail vein with 500 000 MDA-MB-231D3H2LN/GFP-Luc mammary carcinoma cells. Mice were treated with Vehicle or 25 mg/kg EX67 twice a day. Metastases to the lung were evaluated by in vivo imaging after 3 weeks. Lung metastases were also evaluated macroscopically at the day of culling (see FIG. 14).
After 14 days, lung metastases were detected in 10/10 mice treated with Vehicle and 7/10 mice treated with EX67.

p-Akt2 in WM115 cells = target: T1, p-Akt2 in WM115 cells (Homo sapiens, UniProt P31751); assay: Phospho-Akt cellular SureFire assay, p-Akt2 in WM115 cells; format: cell-based; conditions: insulin stimulated, read-out: Biological Assay 2 IC50 (nM) Akt2 WM115
T1 construct: SureFire assays to detect cellular p-Akt1, p-Akt2 and p-Akt3 levels in WM115 cells (Akt2/3) and LNCaP cells (Akt1); endogenous in cells; host or cells: WM115 (ECACC 91061232), insulin-stimulated
T1 sequence (P31751 whole entry): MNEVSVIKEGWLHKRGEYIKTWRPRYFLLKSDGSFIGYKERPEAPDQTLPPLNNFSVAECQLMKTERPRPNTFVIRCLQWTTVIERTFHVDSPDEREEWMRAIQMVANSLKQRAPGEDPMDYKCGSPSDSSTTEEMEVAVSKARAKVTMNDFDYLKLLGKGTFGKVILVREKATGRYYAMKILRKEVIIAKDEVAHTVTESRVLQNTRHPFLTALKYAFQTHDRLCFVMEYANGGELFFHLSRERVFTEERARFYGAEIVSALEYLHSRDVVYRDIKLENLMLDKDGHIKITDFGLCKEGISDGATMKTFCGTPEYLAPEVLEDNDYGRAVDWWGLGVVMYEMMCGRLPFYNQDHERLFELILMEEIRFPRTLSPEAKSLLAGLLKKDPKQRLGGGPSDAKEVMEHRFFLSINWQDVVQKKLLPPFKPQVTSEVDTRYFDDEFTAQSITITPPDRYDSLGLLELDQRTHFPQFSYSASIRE
Method in brief: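 Readout is a bead-proximity SureFire assay pairing a pThr308 Akt antibody with a total Akt2 antibody, lysate and beads incubated 2 h plus 2 h at room temperature in the dark. Before lysis, serum-starved WM115 cells received 100 nM insulin (10 min), then test compound (15 min, 0.3% DMSO); IC50 by 4-parameter equation.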

Akt2 = target: T2, Akt2 (Homo sapiens, UniProt P31751); assay: Akt activation assay (PDK1-mediated activation, LANCE Ultra crosstide TR-FRET), Akt2; format: biochemical; conditions: read-out: Biological Assay 1 IC50 (nM) Akt2
T2 construct: unspecified tag, removed (detagged) (cleaved yes); purchased SignalChem and Proteros (Akt2); Merck Millipore (PDK1) 14-452 (PDK1); none given for Akt2
T2 sequence (P31751 whole entry): as above
Method in brief: (§1)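 TR-FRET read-out (665/615 nm ratio) after Eu-anti-phospho-crosstide antibody, 1 h. Reaction: compound preincubated with Akt isoform, then 5 nM PDK1, lipid vesicles with 0.55 μM PtdIns(3,4,5)P3, 100 μM ATP, 100 nM crosstide, 30 min, EDTA stop. IC50 from 4-parameter equation.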

p-Akt3 in WM115 cells = target: T3, p-Akt3 in WM115 cells (Homo sapiens, UniProt Q9Y243); assay: Phospho-Akt cellular SureFire assay, p-Akt3 in WM115 cells; format: cell-based; conditions: insulin stimulated, read-out: Biological Assay 2 IC50 (nM) Akt3 WM115
T3 construct: SureFire assays to detect cellular p-Akt1, p-Akt2 and p-Akt3 levels in WM115 cells (Akt2/3) and LNCaP cells (Akt1); endogenous in cells; host or cells: WM115 (ECACC 91061232), insulin-stimulated
T3 sequence (Q9Y243 whole entry): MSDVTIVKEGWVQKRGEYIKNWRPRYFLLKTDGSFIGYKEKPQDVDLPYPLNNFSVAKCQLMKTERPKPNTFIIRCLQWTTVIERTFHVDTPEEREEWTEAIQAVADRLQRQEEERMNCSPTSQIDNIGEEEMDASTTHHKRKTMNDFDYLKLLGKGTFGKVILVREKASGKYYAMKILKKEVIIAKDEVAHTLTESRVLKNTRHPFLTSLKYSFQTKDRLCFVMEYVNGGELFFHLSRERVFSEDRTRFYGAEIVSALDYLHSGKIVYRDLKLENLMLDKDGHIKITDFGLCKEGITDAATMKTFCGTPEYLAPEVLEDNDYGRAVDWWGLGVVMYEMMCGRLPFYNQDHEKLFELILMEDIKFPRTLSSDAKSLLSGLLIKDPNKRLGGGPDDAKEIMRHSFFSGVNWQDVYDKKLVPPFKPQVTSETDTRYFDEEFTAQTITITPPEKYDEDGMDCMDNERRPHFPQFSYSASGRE
Method in brief: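 pThr308-Akt3 in lysates was quantified by bead-proximity SureFire detection, pairing a phospho-specific antibody with a total Akt3 antibody. Before lysis, WM115 cells in 0.1% FBS medium were treated for 15 min at 37 °C with compound (final DMSO 0.3%), following a 10 min stimulation with 100 nM insulin. IC50 was obtained by 4-parameter fitting.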

Akt1 = target: T4, Akt1 (Homo sapiens, UniProt P31749); assay: Akt activation assay (PDK1-mediated activation, LANCE Ultra crosstide TR-FRET), Akt1; format: biochemical; conditions: read-out: Biological Assay 1 IC50 (nM) Akt1
T4 construct: unspecified tag, removed (detagged) (cleaved yes); purchased SignalChem and Proteros (Akt1); Merck Millipore (PDK1) 14-452 (PDK1); none given for Akt1
T4 sequence (P31749 whole entry): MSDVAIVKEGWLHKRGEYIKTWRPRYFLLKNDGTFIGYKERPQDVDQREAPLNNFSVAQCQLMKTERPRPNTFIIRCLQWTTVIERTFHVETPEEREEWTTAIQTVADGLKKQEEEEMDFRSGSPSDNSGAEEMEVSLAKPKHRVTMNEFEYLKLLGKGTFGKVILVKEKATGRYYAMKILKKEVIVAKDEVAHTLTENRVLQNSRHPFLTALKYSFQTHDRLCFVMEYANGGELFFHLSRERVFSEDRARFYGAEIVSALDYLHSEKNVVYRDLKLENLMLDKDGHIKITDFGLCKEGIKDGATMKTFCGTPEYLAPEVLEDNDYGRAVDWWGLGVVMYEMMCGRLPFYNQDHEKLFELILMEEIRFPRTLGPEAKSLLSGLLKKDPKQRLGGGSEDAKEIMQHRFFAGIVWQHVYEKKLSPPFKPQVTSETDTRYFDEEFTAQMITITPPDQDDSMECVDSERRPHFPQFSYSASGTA
Method in brief: as §1

Akt3 = target: T5, Akt3 (Homo sapiens, UniProt Q9Y243); assay: Akt activation assay (PDK1-mediated activation, LANCE Ultra crosstide TR-FRET), Akt3; format: biochemical; conditions: read-out: Biological Assay 1 IC50 (nM) Akt3
T5 construct: unspecified tag, removed (detagged) (cleaved yes); purchased SignalChem and Proteros (Akt3); Merck Millipore (PDK1) 14-452 (PDK1); none given for Akt3
T5 sequence (Q9Y243 whole entry): as the sequence (Q9Y243 whole entry) above
Method in brief: as §1

p-Akt1 in LNCaP cells = target: T6, p-Akt1 in LNCaP cells (Homo sapiens, UniProt P31749); assay: Phospho-Akt cellular SureFire assay, p-Akt1 in LNCaP cells; format: cell-based; conditions: read-out: Biological Assay 2 IC50 (nM) Akt1 LNCaP
T6 construct: SureFire assays to detect cellular p-Akt1, p-Akt2 and p-Akt3 levels in WM115 cells (Akt2/3) and LNCaP cells (Akt1); endogenous in cells; host or cells: LNCaP (ECACC 89110211)
T6 sequence (P31749 whole entry): as the sequence (P31749 whole entry) above
Method in brief: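 Phospho-Thr308 Akt1 detected by AlphaScreen SureFire proximity beads in LNCaP lysates after 15 min compound treatment at 37 °C in 0.1% FBS medium, unstimulated, 0.3% DMSO. Cells plated at 5×10^4/well overnight; IC50 from a 4-parameter equation.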

| IC50 (p-Akt2 in WM115 cells) | IC50 (Akt2) | IC50 (p-Akt3 in WM115 cells) | IC50 (Akt1) | IC50 (Akt3) | IC50 (p-Akt1 in LNCaP cells) | Structure (SMILES) | lung metastases [1] | mice with lung metastases detected ([1]; after 14 days, vehicle 10/10) |
| --- | --- | --- | --- | --- | --- | --- | --- | --- |
|  |  |  |  |  |  | COC(=O)N(C)[C@H]1CC[C@H](CC(=O)Nc2cc(-c3ccccc3)c(-c3ccc([C@]4(N)C[C@](C)(O)C4)cc3)cn2)CC1 [EX67] | prevented metastases compared to vehicle-treated mice in a sub-set of animals | 7/10 |
| 18000 nM | 8900 nM | 150 nM | > 30000 nM | 130 nM | > 30000 nM | CC(C)(N)c1ccc(-c2nnc(NC(=O)C[C@H]3CC[C@H](N4CCOC4=O)CC3)cc2-c2ccsc2)cc1 [Example 80, N-(6-(4-(2-aminopropan-2-yl)phenyl)-5-(thiophen-3-yl)pyridazin-3-yl)-2-(trans-4-(2-oxooxazolidin-3-yl)cyclohexyl)acetamide] |  |  |
| > 27000 nM | 1300 nM | 910 nM | > 30000 nM | 77 nM | > 30000 nM | COC(=O)N(C)[C@H]1CC[C@H](CC(=O)Nc2cc(-c3ccccc3)c(-c3ccc(C4(N)CCC4)cc3)cn2)CC1 [Example A61, Methyl (trans-4-(2-((5-(4-(1-aminocyclobutyl)phenyl)-4-phenylpyridin-2-yl)amino)-2-oxoethyl)cyclohexyl)(methyl)carbamate] |  |  |
| 7100 nM | 5800 nM | 230 nM | > 30000 nM | 70 nM | > 30000 nM | CN(C(=O)C(F)F)[C@H]1CC[C@H](CC(=O)Nc2cnc(-c3ccc(C(C)(C)N)cc3)c(-c3ccccc3)c2)CC1 [Example A7, N-(trans-4-(2-((6-(4-(2-aminopropan-2-yl)phenyl)-5-phenylpyridin-3-yl)amino)-2-oxoethyl)cyclohexyl)-2,2-difluoro-N-methylacetamide] |  |  |
| > 30000 nM | 11000 nM | 350 nM | > 30000 nM | 140 nM | > 30000 nM | CCC(=O)N(C)[C@H]1CC[C@H](CC(=O)Nc2cc(-c3ccsc3)c(-c3ccc(C4(N)CC4)c(F)c3)nn2)CC1 [Example A101, N-(trans-4-(2-((6-(4-(1-aminocyclopropyl)-3-fluorophenyl)-5-(thiophen-3-yl)pyridazin-3-yl)amino)-2-oxoethyl)cyclohexyl)-N-methylpropionamide] |  |  |
| 6800 nM | 12000 nM | 72 nM | > 30000 nM | 470 nM | > 30000 nM | CC(=O)N(C)[C@H]1CC[C@H](CC(=O)Nc2cc(-c3ccccc3)c(-c3ccc(C(C)(C)N)cc3)nn2)CC1 [Example 30, N-(6-(4-(2-aminopropan-2-yl)phenyl)-5-phenylpyridazin-3-yl)-2-(trans-4-(N-methylacetamido)cyclohexyl)acetamide] |  |  |
| 2600 nM | 1400 nM | 200 nM | > 19000 nM | 37 nM | > 30000 nM | CN(C(=O)C1CCC1)[C@H]1CC[C@H](CC(=O)Nc2cc(-c3ccccc3)c(-c3ccc(C4(N)CC4)cc3)nn2)CC1 [Example A93, N-(trans-4-(2-((6-(4-(1-aminocyclopropyl)phenyl)-5-phenylpyridazin-3-yl)amino)-2-oxoethyl)cyclohexyl)-N-methylcyclobutanecarboxamide] |  |  |
